# Source: paper PMC7464159, “Triple Negative Breast Cancer and Breast Epithelial Cells Differentially Reprogram Glucose and Lipid Metabolism upon Treatment with Triterpenic Acids” (Biomolecules, 2020)
# Tested on: MDA-MB-231 cells
# Experiment: 1H NMR metabolomics of polar (aqueous) cell extracts
# Format: cell-based, human
structure (smiles),measurement,setting,value
"C[C@H]1[C@H](C)CC[C@]2(C(=O)O)CC[C@]3(C)C(=CC[C@@H]4[C@@]5(C)CC[C@H](O)C(C)(C)[C@@H]5CC[C@]43C)[C@H]12 [UA, ursolic acid]",ATP %var,"UA 10µM, 48h",0%
same,Acetate %var,"UA 10µM, 48h",0%
same,Ala %var,"UA 10µM, 48h",0%
same,Asp %var,"UA 10µM, 48h",0%
same,Choline %var,"UA 10µM, 48h",-6.23%
same,Citrate %var,"UA 10µM, 48h",-23.26%
same,Cr %var,"UA 10µM, 48h",0%
same,Fumarate %var,"UA 10µM, 48h",0%
same,GPC %var,"UA 10µM, 48h",9.94%
same,GSH %var,"UA 10µM, 48h",-7.40%
same,Gln %var,"UA 10µM, 48h",-13.00%
same,Glu %var,"UA 10µM, 48h",0%
same,Gly %var,"UA 10µM, 48h",0%
same,Ile %var,"UA 10µM, 48h",0%
same,Lactate %var,"UA 10µM, 48h",0%
same,Leu %var,"UA 10µM, 48h",0%
same,PC %var,"UA 10µM, 48h",-7.00%
same,PCr %var,"UA 10µM, 48h",-13.59%
same,Phe %var,"UA 10µM, 48h",0%
same,Pro %var,"UA 10µM, 48h",0%
same,Tau %var,"UA 10µM, 48h",0%
same,Tyr %var,"UA 10µM, 48h",0%
same,Val %var,"UA 10µM, 48h",0%
same,myo-Ino %var,"UA 10µM, 48h",0%
same,ATP %var,"UA 10µM, 48h+24h",0%
same,Acetate %var,"UA 10µM, 48h+24h",0%
same,Ala %var,"UA 10µM, 48h+24h",0.00%
same,Asp %var,"UA 10µM, 48h+24h",0.00%
same,Choline %var,"UA 10µM, 48h+24h",0%
same,Citrate %var,"UA 10µM, 48h+24h",-10.99%
same,Cr %var,"UA 10µM, 48h+24h",0%
same,Fumarate %var,"UA 10µM, 48h+24h",0%
same,GPC %var,"UA 10µM, 48h+24h",0%
same,GSH %var,"UA 10µM, 48h+24h",0%
same,Gln %var,"UA 10µM, 48h+24h",0%
same,Glu %var,"UA 10µM, 48h+24h",0%
same,Gly %var,"UA 10µM, 48h+24h",-7.50%
same,Ile %var,"UA 10µM, 48h+24h",0%
same,Lactate %var,"UA 10µM, 48h+24h",0%
same,Leu %var,"UA 10µM, 48h+24h",0%
same,PC %var,"UA 10µM, 48h+24h",0%
same,PCr %var,"UA 10µM, 48h+24h",0%
same,Phe %var,"UA 10µM, 48h+24h",0%
same,Pro %var,"UA 10µM, 48h+24h",0%
same,Tau %var,"UA 10µM, 48h+24h",0%
same,Tyr %var,"UA 10µM, 48h+24h",0%
same,Val %var,"UA 10µM, 48h+24h",0%
same,myo-Ino %var,"UA 10µM, 48h+24h",0%
same,ATP %var,"UA 20µM, 48h",0%
same,Acetate %var,"UA 20µM, 48h",10.69%
same,Ala %var,"UA 20µM, 48h",0%
same,Choline %var,"UA 20µM, 48h",0%
same,Citrate %var,"UA 20µM, 48h",-19.44%
same,Cr %var,"UA 20µM, 48h",0%
same,GPC %var,"UA 20µM, 48h",10.72%
same,GSH %var,"UA 20µM, 48h",-7.50%
same,Gln %var,"UA 20µM, 48h",0%
same,Glu %var,"UA 20µM, 48h",0%
same,Gly %var,"UA 20µM, 48h",-15.08%
same,Ile %var,"UA 20µM, 48h",0%
same,Lactate %var,"UA 20µM, 48h",0%
same,Leu %var,"UA 20µM, 48h",0%
same,PC %var,"UA 20µM, 48h",-6.17%
same,PCr %var,"UA 20µM, 48h",-10.77%
same,Phe %var,"UA 20µM, 48h",0%
same,Pro %var,"UA 20µM, 48h",0%
same,Tau %var,"UA 20µM, 48h",11.82%
same,Tyr %var,"UA 20µM, 48h",0%
same,Val %var,"UA 20µM, 48h",0%
same,myo-Ino %var,"UA 20µM, 48h",0%
same,number of intracellular polar metabolites consistently altered,"UA 20µM, 48h",10
same,ATP %var,"UA 20µM, 48h+24h",-9.33%
same,Acetate %var,"UA 20µM, 48h+24h",11.02%
same,Ala %var,"UA 20µM, 48h+24h",-12.11%
same,Asp %var,"UA 20µM, 48h+24h",32.91%
same,Choline %var,"UA 20µM, 48h+24h",0%
same,Citrate %var,"UA 20µM, 48h+24h",-15.02%
same,Cr %var,"UA 20µM, 48h+24h",0%
same,Fumarate %var,"UA 20µM, 48h+24h",-10.34%
same,GPC %var,"UA 20µM, 48h+24h",-6.52%
same,GSH %var,"UA 20µM, 48h+24h",-8.79%
same,Gln %var,"UA 20µM, 48h+24h",0%
same,Glu %var,"UA 20µM, 48h+24h",0%
same,Gly %var,"UA 20µM, 48h+24h",-25.85%
same,Ile %var,"UA 20µM, 48h+24h",0%
same,Lactate %var,"UA 20µM, 48h+24h",0%
same,Leu %var,"UA 20µM, 48h+24h",0%
same,PC %var,"UA 20µM, 48h+24h",21.66%
same,PCr %var,"UA 20µM, 48h+24h",0%
same,Phe %var,"UA 20µM, 48h+24h",0%
same,Pro %var,"UA 20µM, 48h+24h",0%
same,Tau %var,"UA 20µM, 48h+24h",0%
same,Tyr %var,"UA 20µM, 48h+24h",0%
same,Val %var,"UA 20µM, 48h+24h",0%
same,myo-Ino %var,"UA 20µM, 48h+24h",-9.02%
